Results as given in patent US20240390340A1 (INCYTE CORPORATION, priority 2023, published 2024).

tested on: KRAS; experiment: KRAS inhibition, assay not specified (at least one assay described herein); details: Peak 1 versus Peak 2 of prep. LCMS; assay not stated

Row | Compound | potency of the separated diastereoisomer (atropisomer) in words
1 | Cc1nc2c(F)c(-c3cccc(Cl)c3Cl)c(CCC#N)cc2c2c1cc([C@H]1C[C@H](n3cc(C(C)(C)C)nn3)CN1C(=O)C1CC1)n2[C@H]1[C@H]2CN[C@@H]1C2 (single isomer, unassigned) [Example 4, Diastereomer 1 (Peak 1)] | potent
2 | C[C@@H](O)c1nc2c(F)c(-c3cccc(Cl)c3Cl)c(CCC#N)cc2c2c1cc([C@H]1C[C@H](Oc3nccs3)CN1C(=O)C1CC1)n2[C@H]1[C@H]2CN[C@@H]1C2 (single isomer, unassigned) [Example 54, Diastereomer 1 (Peak 1)] | potent
3 | Cc1cc(F)cc(O[C@H]2C[C@H](c3cc4c([C@@H](C)O)nc5c(F)c(-c6cccc(Cl)c6Cl)c(CCC#N)cc5c4n3[C@H]3[C@H]4CN[C@@H]3C4)N(C(=O)C3CC3)C2)n1 (single isomer, unassigned) [Example 62, Diastereomer 1 (Peak 1)] | potent
4 | COc1cc(O[C@H]2C[C@H](c3cc4c(C(C)O)nc5c(F)c(-c6cccc(Cl)c6Cl)c(CCC#N)cc5c4n3[C@H]3[C@H]4CN[C@@H]3C4)N(C(=O)C3CC3)C2)ccn1 (single isomer, unassigned) [Example 2, Diastereomer 1 (Peak 1)] | potent
5 | CC[C@@H]1[C@@H](Oc2cc(OC)ncc2F)C[C@H](c2cc3c([C@@H](C)O)nc4c(F)c(-c5cccc(Cl)c5Cl)c(CCC#N)cc4c3n2[C@H]2[C@H]3CN[C@@H]2C3)N1C(=O)C1CC1 (single isomer, unassigned) [Example 82, Diastereomer 1 (Peak 1)] | potent
6 | Cc1nc2c(F)c(-c3cccc(Cl)c3Cl)c(CCC#N)cc2c2c1cc([C@H]1C[C@H](OC(F)(F)c3ccccc3)CN1C(=O)C1CC1)n2[C@H]1[C@H]2CN[C@@H]1C2 (single isomer, unassigned) [Example 79, Diastereomer 1 (Peak 1)] | potent
7 | CC(O)c1nc2c(F)c(-c3cccc(Cl)c3Cl)c(CCC#N)cc2c2c1cc([C@H]1C[C@H](OCc3ccc(F)cc3C#N)CN1C(=O)C1(C)CC1)n2[C@H]1[C@H]2CN[C@@H]1C2 (single isomer, unassigned) [Example 35, Diastereomer 1 (Peak 1)] | potent
